Key:
[1] = system: HIF-1α, VEGF, GLUT1 and EPO levels in HEK293 cells; assay: Western blotting of HIF-1α and HIF-1α target gene products in HEK293 cells; type: cell-based, Human; details: 2 h
Experimental: FIG. 3 depicts the effect of complex 1a on HIF-1α target gene products in cellulo. (A) Effect of complex 1a on specific proteins (GLUT1, VEGF, and EPO) mediated by HIF-1α in HEK293 cells. HEK293 cells were treated with 1a for 2 h. Cell lysis were collected and analyzed by the Western blotting. (B) Complex 1a has no effect on HIF-1α accumulation in a VHL null cancer cell line. A498 (VHL-null), or HEK293 cells were treated with 1% DMSO, 1a (3 μM), VH298 (100 μM), and FG-4592 (100 μM) for 2 h before lysis. (C) Effect of complex 1a on EPO, GLUT1, and VEGF levels in HEK293 cells with or without HIF-1α knockdown. Left: The expression levels of EPO, GLUT1, and VEGF in HEK293 cells with or without knockdown HIF-1α in the presence or absence of 1a. Right: Densitometry analysis of EPO, GLUT1, and VEGF levels on the Western blot. HIF-1α siRNA [sense, 5′-[…]-3′ (SEQ ID NO:1), antisense, 5′-[…]-3′ (SEQ ID NO:2)]. Negative control (NC) siRNA [sense, 5′-[…]-3′ (SEQ ID NO:3), antisense, 5′-[…]-3′ (SEQ ID NO:4)]. Data are expressed as means±SD (n=3 independent experiments), P values were calculated using a two-sided t-test. #P<0.05, P<0.01 HIF-1α siRNA vs. NC siRNA, *P<0.05, **P<0.01 1a vs. vehicle/DMSO group, respectively.
Therefore, the effect of complex 1a on HIF-1α and HIF-1α target protein levels in cellulo was investigated. […]

[2] = system: full-thickness skin wounds in leptin-receptor deficient (db/db) diabetic mice; details: 0.25 mg/mL topical every other day
Experimental: (§1) The db/db and age-matched wide-type (WT) mice were locally administered with vehicle (0.8% w/v Carbopol 974P NF in distilled water, pH 7.0) and 0.25 mg/mL complex 1a (mixed in 0.8% w/v Carbopol 974P NF in distilled water) every other day for 8 days, respectively (FIG. 4a). […] STZ mice were obtained by a single injection of high-dose streptozotocin (150 mg/kg) (Supplementary FIG. 10a). HFD/STZ mice were generated by 8 weeks high-fat diet feeding, followed by low-dose streptozotocin injection for 7 days (40 mg/kg/day) (Supplementary FIG. 11a). 3 days after streptozotocin injection, STZ or HFD/STZ mice with fasting blood glucose levels between 15 and 28 mmol/L were considered as diabetic mice and used in wound healing experiments. STZ and HFD/STZ mice were intraperitoneally injected with either vehicle (PEG 400: distilled water=6:4, v/v) or 1.25 mg/kg complex 1a every other day for 8 days, respectively.
(§2) In the wound healing experiment, two full-thickness skin lesions were excised in interscapular area of each mouse, and the wound area was monitored every other day.
(§3) Male db/db mice were purchased from the Model Animal Research Center of Nanjing University (Nanjing, China). Male C57BL/6J mice were purchased from the animal facility of Faculty of Health Sciences, University of Macau.

[3] = system: full-thickness skin wounds in high-fat diet-fed, streptozotocin-treated diabetic mice (HFD/STZ); details: 1.25 mg/kg i.p. every other day
Experimental: as §1, §2, §3

[4] = system: wound tissue of normal and diabetic mice; assay: Wound tissue analysis (H&E, Masson's trichrome, laser doppler, CD31, Western blot, qRT-PCR) in normal and diabetic mice; type: in vivo
Source text: (A) Timeline for in vivo experiments. (B) Image of representative wound (left) and wound closure rate (right) (n=5 mice). (C) H&E and Masson's trichrome staining of dorsal skin section and skin thickness from the top of the epidermis to the bottom of the dermis in mice after 8 days post-injury (n=4 mice). Scale bar=200 μm. (D) Laser doppler imager in dorsal skin: representative images were shown for each group (left) and baseline perfusion on back skin of mice (right) after 2 days post-injury (dotted line circle represents the wound bed in mice of each group and arrow represents perfusion intensity (n=5 mice). (E) CD31 and DAPI double staining in wound bed of mice after 8 days post-injury (n=4 mice). Scale bar=50 μm. Data are expressed as means±SD, P values were calculated using a one-way ANOVA with Tukey's multiple comparison test. #P<0.05, ##P<0.01 WT vs. db/db, *P<0.05, **P<0.01 1a vs. vehicle.
(A) Western blot analyses and quantitation of HIF-1α, VEGF, GLUT1, and EPO in wound tissue (n=3 mice). All proteins were normalized by β-actin. (B) The mRNA levels of HIF-1α target genes involved in wound healing were analyzed by qRT-PCR in wound tissues (n=5 mice). Data are expressed as means±SD, P values were calculated using a one-way ANOVA with Tukey's multiple comparison test. P<0.05, P<0.01 WT vs. db/db, *P<0.05, **P<0.01 1a vs. vehicle. S
The epithelial thickness of the regenerated skin in each group was compared using H&E staining and Masson's trichrome staining. […] One of the key processes related to wound healing is tissue angiogenesis.
After electrophoresis of protein samples (30 μg of total protein) on SDS-PAGE gels, the samples were transferred to a PVDF membrane and incubated at room temperature with blocking solution for 1 h. The membrane was treated with primary antibodies and incubated overnight at 4° C. After 1 h incubation with the secondary antibodies (Supplementary Table Sl), protein bands were visualized using ECL Western Blotting Detection Reagent (GE Healthcare).
After fixation in 4% paraformaldehyde, the skin samples were embedded in paraffin and sectioned ([…]). For histological evaluation, sections were deparaffinized and rehydrated followed by hematoxylin and eosin (H&E) and Masson's trichrome staining. For immunohistochemical staining of CD31, the wound tissue sections were deparaffinized and stained with CD31 antibody (1:1000; ABclonal, Cambridge, MA, USA). The slides were examined under ×400 magnification to identify the area with the highest vascular density, and five randomly high-power field areas of the highest microvessel density were selected for each section. The average was calculated as the microvessel density of this sample.

[5] = system: oxygen depletion, PHD inhibition, proteasomal inhibition; assay: Alternative mechanisms of HIF activation (oxygen depletion, PHD inhibition, proteasomal inhibition)
[6] = normal and diabetic mice, 8 days post-injury

With COc1cc[n+]2c3c1ccc1c(OC)cc[n+](c13)[Ir-3]213([c]2ccccc2-c2cccc[n+]21)[c]1ccccc1-c1cccc[n+]13.F[P-](F)(F)(F)(F)F [1a] the “Expression levels of HIF-1α, VEGF, GLUT1 and EPO” value [1] was “increased in a dose-dependent manner”, the “Rate of wound closure, db/db mice, 4 days” value ([2]; 4 days post-injury) was “about 28%” and the “Rate of wound closure, db/db mice, 8 days” value ([2]; 8 days post-injury) was about 40%. For the same compound, the “Rate of wound closure, HFD/STZ mice, 4 days” value ([3]; 4 days post-injury) was 62%, the “Rate of wound closure, HFD/STZ mice, 8 days” value ([3]; 8 days post-injury) was 82% and the “HIF-1α target genes in wound tissue, qRT-PCR, WT/NC mice” value ([4]; WT/NC mice) was “weaker effects”. For the same compound, the “Expression of HIF-1α, VEGF, GLUT1 and EPO in wound tissue (Western blotting)” value ([4]; WT/NC, db/db, HFD/STZ and STZ groups, 8 days post-wounding, vs vehicle) was “significantly increased”, the “HIF-1α target genes (HSP-90, VEGFR-1, SDF-1, SCF, Tie-2) in wound tissue, qRT-PCR, diabetic mice” value ([4]; diabetic mice) was “also increased in the wound tissue of 1a-treated diabetic mice” and the “Microvessel density in wound areas (CD31 immunostaining)” value ([4]; normal and diabetic groups, 8 days post-injury) was “significantly enhanced microvessel density”. For the same compound, the “Skin blood flow rate (skin perfusion pressure test)” value ([4]; normal and diabetic mice, 2 days post-injury) was “remarkably increased skin blood flow rate”, the “Collagen deposition in wound areas” value [4, 6] was “enhanced collagen deposition in wound areas” and the “Skin thickness (H&E, Masson's trichrome)” value [4, 6] was “increased skin thickness”. For the same compound, the “Activation of HIF signaling via oxygen depletion, PHD inhibition and/or proteasomal inhibition” value [5] was “unlikely to activate HIF signaling via oxygen depletion, PHD inhibition, and/or proteasomal inhibition”.

— patent US11958868B2, “Methods of using metal complexes to promote wound healing” (University of Macau, priority 2022, dated 2024)
